Data on nine molecules can be found in publication PMC5352776, “Neutron activation increases activity of ruthenium-based complexes and induces cell death in glioma cells independent of p53 tumor suppressor gene” (Biometals, 2017).

Assay [1] concerns U87 (p53 wild-type) glioblastoma cells. The experiment in a line: MTT cytotoxic activity assay, U87 cells. It counts as cell-based, human. The conditions noted are these: for Selectivity index U87: SI = IC50 MRC5/IC50 tumor cell; for IC50: 24 h exposure, MTT. The method, then:
(§1) Malignant human Glioblastoma tumor cell lines U87 (p53 wild-type), T98 (p53 mutant) and normal cells MRC5 (Human Fetal Lung Fibroblast) were obtained from the American Type Culture Collection (ATCC, USA). The cells were maintained in Dulbecco’s Modified Eagle’s Medium (DMEM, Gibco), supplemented with 10% fetal bovine serum (FBS-Cultilab) and antibiotics (50 U/ml penicillin, […] streptomycin), at 37 °C in a humidified 5% CO2 atmosphere. For all experiments, cells were seeded at appropriate concentrations to ensure exponential growth.
(§2) The cytotoxicity of ruthenium(II) compounds was determined by measuring mitochondrial activity as a indicator of cell viability dependent on the reduction of MTT 3-(4,5-dimethylthiazol-2-yl)-2,5-diphenyl tetrazolium bromide to formazan (Mosmann [1983]). Cells (1.5 × 10^3/well) were seeded in 200 μl complete medium into 96-well microplates in triplicates. The plates were incubated at 37 °C in 5% CO2 for 24 h to allow cell adhesion, prior to drug testing. All radioactive or non-radioactive tested compounds were dissolved in sterile DMSO and diluted to reach final concentrations ranging from 1 × 10^−10 to 1 × 10^−4 mol l^−1. Cells were exposed to the compounds for a 24 h period and then, 0.5 mg ml^−1 of MTT solution was added to each well and further incubated for 4 h. The precipitated formazan crystals were dissolved in DMSO and the absorbance of produced color measured spectrophotometrically at 570 nm. The results were expressed as % viability of non-treated cell (control) versus drug concentration and the concentration that reduces cell viability by 50% (IC50) was calculated.
A general note: Formazan colour is commonly taken as a measure of viable cells.

The test system of assay [2] is T98 (p53 mutant) glioblastoma cells. As to the kind of experiment: MTT cytotoxic activity assay, T98 cells. It counts as cell-based, human. The settings on record: for Selectivity index T98: SI = IC50 MRC5/IC50 tumor cell; for IC50: 24 h exposure, MTT. As for the experimental part: as §1, §2
Assay [3] relates to MRC5 (Human Fetal Lung Fibroblast). As to the kind of experiment: MTT cytotoxic activity assay, MRC5 normal cells. It counts as cell-based. The conditions noted are these: 24 h exposure. As for the experimental part:
as §1, §2

Where [4] appears, read: Radioactive (neutron activated form).
Setting [5] is: non-radioactive compounds, listed as [Ru(pic)(bipy)(dppf)]PF6.
The mark [6] stands for this setting: non-radioactive compounds, listed as [Ru(pic)(bipy)(dppp)]PF6.
The mark [7] stands for this setting: radioactive (neutron activated) compounds.

`N.N.[Cl][Pt][Cl]` [Cisplatin, reference compound]: the “Selectivity index U87” value in assay [1] (Non-radioactive) is listed as 2.87. Besides, the IC50 – broadly, the concentration that gives 50% inhibition – in assay [1] (non-radioactive compounds) is 1800 ± 200 nM; in assay [2] (non-radioactive compounds), 5300 ± 1900 nM; in assay [3] (non-radioactive compounds) it was 5050 ± 700 nM. In assay [2] (Non-radioactive), the “Selectivity index T98” value is reported as 0.95.
Regarding `F[P-](F)(F)(F)(F)F.O=C([O-])c1ccccn1.[Ru+2].c1ccc(-c2ccccn2)nc1.c1ccc(P(CCCCP(c2ccccc2)c2ccccc2)c2ccccc2)cc1` [[Ru(pic)(bipy)(dppb)]PF6 (1), [Ru(pic)(bipy)(dppb)]PF6], the results for the “Selectivity index U87” value in assay [1] (Non-radioactive) and in assay [1] (setting [4]) were 2.55 and 1.63, respectively. Further, the IC50 in assay [1] (non-radioactive compounds) worked out at 16100 ± 3300 nM; in assay [2] (non-radioactive compounds), 11900 ± 5900 nM; in assay [3] (non-radioactive compounds), 41000 ± 10100 nM. In addition, the “Selectivity index T98” value is on record as 3.45 in assay [2] (Non-radioactive) and 1.14 in assay [2] (setting [4]).
On to `F[P-](F)(F)(F)(F)F.O=C([O-])c1ccccn1.[Ru+2].c1ccc(-c2ccccn2)nc1.c1ccc(P(CCP(c2ccccc2)c2ccccc2)c2ccccc2)cc1` [[Ru(pic)(bipy)(dppe)]PF6 (2), [Ru(pic)(bipy)(dppe)]PF6], for which the results for the “Selectivity index U87” value in assay [1] (Non-radioactive) and in assay [1] (setting [4]) were 2.95 and 0.87, respectively. Further, the figures for the IC50 in assay [1] (non-radioactive compounds), in assay [2] (non-radioactive compounds) and in assay [3] (non-radioactive compounds) were 27800 ± 11700 nM, 19000 ± 5900 nM and 82100 ± 9100 nM, respectively. Also, the entries for the “Selectivity index T98” value in assay [2] (Non-radioactive) and in assay [2] (setting [4]) were 4.32 and 0.39, respectively.
As for `F[P-](F)(F)(F)(F)F.O=C([O-])c1ccccn1.[Fe+2].[Ru+2].c1ccc(-c2ccccn2)nc1.c1ccc(P(c2ccccc2)[c-]2cccc2)cc1.c1ccc(P(c2ccccc2)[c-]2cccc2)cc1` [[Ru(pic)(bipy)(dppf)]PF6 (3), [Ru(pic)(bipy)(dppf)]PF6], the “Selectivity index U87” value in assay [1] (Non-radioactive) amounted to 2.23; in assay [1] (setting [4]), 0.90. Moreover, the IC50 in assay [1] (non-radioactive compounds) was 4000 ± 8500 nM; in assay [1] (setting [5]) it was 3980 ± 850 nM; in assay [2] (non-radioactive compounds), 3000 ± 700 nM; in assay [2] (setting [5]), 3050 ± 720 nM; in assay [3] (non-radioactive compounds), 8900 ± 2300 nM. Moreover, the “Selectivity index T98” value in assay [2] (Non-radioactive) came to 2.91; in assay [2] (setting [4]), 0.70.
Turning to `F[P-](F)(F)(F)(F)F.O=C([O-])c1ccccn1.[Ru+2].c1ccc(-c2ccccn2)nc1.c1ccc(P(CCCP(c2ccccc2)c2ccccc2)c2ccccc2)cc1` [[Ru(pic)(bipy)(dppp)]PF6 (4), [Ru(pic)(bipy)(dppp)]PF6], the entries for the “Selectivity index U87” value in assay [1] (Non-radioactive) and in assay [1] (setting [4]) were 0.29 and 1.52, respectively. In addition, the half-maximal inhibitory concentration (IC50) in assay [1] (non-radioactive compounds) amounted to 4900 ± 2500 nM; in assay [1] (setting [6]) it was 4920 ± 2460 nM; in assay [2] (non-radioactive compounds), 1500 ± 500 nM; in assay [2] (setting [6]), 1490 ± 500 nM; in assay [3] (non-radioactive compounds), 1470 ± 600 nM. The “Selectivity index T98” value in assay [2] (Non-radioactive) came out at 0.98; in assay [2] (setting [4]), 0.76.
For “[^103Ru(pic)(bipy)(dppb)]PF6 [[^103Ru(pic)(bipy)(dppb)]PF6 (1)]”, the IC50 in assay [1] (setting [7]) turned out to be 0.24 nM; in assay [2] (setting [7]), 0.34 nM; in assay [3] (setting [7]) it was 0.39 nM.
The matching figures for “[^103Ru(pic)(bipy)(dppe)]PF6 [[^103Ru(pic)(bipy)(dppe)]PF6 (2)]”: 0.23 nM, 0.52 nM and 0.2 nM.
For “[^103Ru(pic)(bipy)(dppf)]PF6 [[^103Ru(pic)(bipy)(dppf)]PF6 (3)]”, the IC50 is 0.42 nM in assay [1] (setting [7]), 0.54 nM in assay [2] (setting [7]) and 0.38 nM in assay [3] (setting [7]).
“[^103Ru(pic)(bipy)(dppp)]PF6 [[^103Ru(pic)(bipy)(dppp)]PF6 (4)]”: the IC50 in assay [1] (setting [7]) came out at 0.31 nM; in assay [2] (setting [7]) it was 0.62 nM; in assay [3] (setting [7]), 0.47 nM.
